*1 amine or outer side, *2 acyl side, *3 side chain or, on linkers, in order; H or OH if unused. Where a SMILES comes first, the peptide text is derived from it. Bridges are numbered along the chain shown (N, C = ends). [ ]: non-standard residue; d: D form. The star is where a group is joined. hPhe(3-Cl-4-CF3) = N[C@@H](CCc1ccc(C(F)(F)F)c(Cl)c1)C(=O)O; NPrPhe(4-CF3) = CCCN[C@@H](Cc1ccc(C(F)(F)F)cc1)C(=O)O; NEtAsp = CCN([C@@H](CC(=O)[*:3])C(=O)[*:2])[*:1]; X2 = CCCN([C@@H](COC1CCC1)C(=O)[*:2])[*:1]; NMeGly(cPent) = CN[C@H](C(=O)O)C1CCCC1; NEtLeu = CCN[C@@H](CC(C)C)C(=O)O; NMeD = CN[C@@H](CC(=O)O)C(=O)O; NMeL = CN[C@@H](CC(C)C)C(=O)O; Morpholide = C1CN(*)CCO1; NMeA = CN[C@@H](C)C(=O)O; Ac5c = NC1(C(=O)O)CCCC1; Aze = O=C(O)[C@@H]1CCN1; Ac4c = NC1(C(=O)O)CCC1; Sar = CNCC(=O)O
How the values were obtained:
[1] = system: human lung cancer strain NCI-H441; experiment: cells; details: NCI-H441, 96 h, read-out: NCI-H441 IC50 (nM), NCI-H441 cell proliferation, 4 days, CellTiter-Glo;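 note: cell proliferation inhibition after four days measured by CellTiter-Glo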
[2] = target: GDP-bound NRAS wild-type protein (Homo sapiens, UniProt P01111); experiment: Binding to NRAS by surface plasmon resonance (SPR), Single Cycle Kinetics; details: ratio of KD for GDP-bound NRAS wild-type protein to KD for KRAS, SPR
[3] = target: GDP-bound HRAS wild-type protein (Homo sapiens, UniProt P01112); experiment: Binding to HRAS by surface plasmon resonance (SPR), Single Cycle Kinetics; details: ratio of KD for GDP-bound HRAS wild-type protein to KD for KRAS, SPR
[4] = target: GDP-bound KRAS wild-type protein (Homo sapiens, UniProt P01116); experiment: Binding to KRAS by surface plasmon resonance (SPR), Single Cycle Kinetics; details: SPR, Single Cycle Kinetics, GDP-bound KRAS wild-type protein; read-out: KRAS KD
GDP-bound KRAS wild-type protein, sequence (P01116 whole entry): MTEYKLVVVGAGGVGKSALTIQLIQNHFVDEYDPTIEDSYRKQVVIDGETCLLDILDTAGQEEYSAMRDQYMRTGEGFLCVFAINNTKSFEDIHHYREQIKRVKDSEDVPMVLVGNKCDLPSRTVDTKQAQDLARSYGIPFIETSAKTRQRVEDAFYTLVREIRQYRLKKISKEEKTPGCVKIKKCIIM

GDP-bound HRAS wild-type protein, sequence (P01112 whole entry): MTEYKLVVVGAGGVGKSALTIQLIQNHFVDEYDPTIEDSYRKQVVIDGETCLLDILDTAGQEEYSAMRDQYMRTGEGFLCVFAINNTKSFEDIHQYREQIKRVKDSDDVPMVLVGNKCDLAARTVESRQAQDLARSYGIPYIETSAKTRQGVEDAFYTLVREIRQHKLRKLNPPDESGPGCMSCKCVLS
GDP-bound NRAS wild-type protein, sequence (P01111 whole entry): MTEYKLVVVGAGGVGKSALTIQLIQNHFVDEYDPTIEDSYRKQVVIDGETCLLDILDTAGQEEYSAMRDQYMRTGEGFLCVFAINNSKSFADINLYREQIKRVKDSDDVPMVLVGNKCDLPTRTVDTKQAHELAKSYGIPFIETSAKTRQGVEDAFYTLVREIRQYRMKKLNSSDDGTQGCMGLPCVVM

Structure (SMILES)	IC50 [1]	Kd [4]	NRAS/KRAS (KD ratio) [2]	HRAS/KRAS (KD ratio) [3]
C#CC[C@H]1C(=O)N[C@@H]([C@@H](C)CC)C(=O)N(C)CC(=O)N(C)[C@H]2C/C=C\CCN(C2=O)[C@@H](Cc2ccc(C(F)(F)F)cc2)C(=O)N(C)CC(=O)N[C@@H](CCc2cc(F)c(C(F)(F)F)c(F)c2)C(=O)N2C[C@H](F)C[C@H]2C(=O)NC2(CC(C)(C)C2)C(=O)N(C)[C@@H](C2CCCC2)C(=O)N(C)[C@H](C(=O)N(C)CC)CC(=O)N1C [PP1691]	3.1 nM	0.06 nM	A (a compound having 10 or more and less than 20 is denoted as A)	A (a compound having 10 or more and less than 20 is denoted as A)
CCO[C@@H]1C[C@H]2C(=O)NC3(CC(C)(C)C3)C(=O)N(C)[C@@H](C3CCCC3)C(=O)N(C)[C@H](C(=O)N(C)C)CC(=O)N3CCCCC[C@H]3C(=O)N[C@@H]([C@@H](C)CC)C(=O)N(C)CC(=O)N(C)[C@H]3C/C=C\CCN(C3=O)[C@@H](Cc3ccc(C(F)(F)F)cc3)C(=O)N(C)CC(=O)N[C@@H](CCc3cc(F)c(C(F)(F)F)c(F)c3)C(=O)N2C1 [PP1915]	18.5 nM	0.31 nM	A (a compound having 10 or more and less than 20 is denoted as A)	A (a compound having 10 or more and less than 20 is denoted as A)
CC[C@H](C)[C@@H]1NC(=O)[C@H](C(C)C)N(C)C(=O)C[C@@H](C(=O)N(C)CC)N(C)C(=O)[C@H](C2CCCC2)N(C)C(=O)C2(CC(C)(C)C2)NC(=O)[C@@H]2C[C@H](C)CN2C(=O)[C@H](CCc2cc(F)c(C(F)(F)F)c(F)c2)NC(=O)CN(C)C(=O)[C@H](Cc2ccc(C(F)(F)F)cc2)N2CC/C=C\C[C@@H](C2=O)N(C)C(=O)CN(C)C1=O [PP1976]	92 nM	0.37 nM	AA (a compound having 20 or more is denoted as AA)	A (a compound having 10 or more and less than 20 is denoted as A)
CCCN1C(=O)CN(C)C(=O)CNC(=O)[C@H]([C@@H](C)CC)NC(=O)[C@H](CC(C)C)N(C)C(=O)C[C@@H](C(=O)N2CCOCC2)N(CC)C(=O)[C@H](C2CCCC2)N(C)C(=O)C2(CCCC2)NC(=O)[C@@H]2CCCN2C(=O)[C@H](CCc2ccc(C(F)(F)F)c(Cl)c2)NC(=O)CN(C)C(=O)[C@@H]1Cc1ccc(C(F)(F)F)cc1 [PP1970] ([NMeL]IG[Sar][NPrPhe(4-CF3)][Sar][hPhe(3-Cl-4-CF3)]P[Ac5c][NMeGly(cPent)][NEtAsp]-Morpholide; lactam N-11)	16.8 nM	0.62 nM	B (a compound having 3 or more and less than 10 is denoted as B)	B (a compound having 3 or more and less than 10 is denoted as B)
CCCN1C(=O)CN(C)C(=O)CN(C)C(=O)[C@H]([C@@H](C)CC)NC(=O)[C@H](CC(C)C)N(CC)C(=O)C[C@@H](C(=O)N2CCOCC2)N(C)C(=O)[C@H](C2CCCC2)N(C)C(=O)C2(CCC2)NC(=O)[C@@H]2CCCN2C(=O)[C@H](CCc2ccc(C(F)(F)F)c(Cl)c2)NC(=O)CN(C)C(=O)[C@@H]1Cc1ccc(C(F)(F)F)cc1 [PP1946] ([NEtLeu]I[Sar][Sar][NPrPhe(4-CF3)][Sar][hPhe(3-Cl-4-CF3)]P[Ac4c][NMeGly(cPent)][NMeD]-Morpholide; lactam N-11)	15.2 nM	0.16 nM	B (a compound having 3 or more and less than 10 is denoted as B)	C (A compound having a KD ratio of 0.1 or more and less than 3 is denoted as C)
CC[C@H](C)[C@@H]1NC(=O)[C@H](CC)N(C)C(=O)C[C@@H](C(=O)N(C)C)N(C)C(=O)[C@H](C2CCCC2)N(C)C(=O)C2(CCCC2)N(C)C(=O)[C@@H]2CCCN2C(=O)[C@H](CCc2cc(F)c(C(F)(F)F)c(F)c2)NC(=O)CN(C)C(=O)[C@H](Cc2ccc(C)cc2)N2CC/C=C\C[C@@H](C2=O)N(C)C(=O)CN(C)C1=O [PP1807]	5 nM	0.062 nM	A (a compound having 10 or more and less than 20 is denoted as A)	B (a compound having 3 or more and less than 10 is denoted as B)
CCC[C@H]1C(=O)N[C@@H]([C@@H](C)CC)C(=O)N(C)CC(=O)N(C)[C@H]2C/C=C\CCN(C2=O)[C@@H](Cc2ccc(C(F)(F)F)cc2)C(=O)N(C)CC(=O)N[C@@H](CCc2cc(F)c(C(F)(F)F)c(F)c2)C(=O)N2CC(F)(F)C[C@H]2C(=O)NC2(CC(C)(C)C2)C(=O)N(C)[C@@H](C2CCCC2)C(=O)N(C)[C@H](C(=O)N(C)C)CC(=O)N1C [PP1711]	5 nM	0.093 nM	A (a compound having 10 or more and less than 20 is denoted as A)	B (a compound having 3 or more and less than 10 is denoted as B)
CCCN1C(=O)[C@@H]2CCN2C(=O)[C@H](C)N(C)C(=O)[C@H]([C@@H](C)CC)NC(=O)[C@H](CC(C)C)N(C)C(=O)C[C@@H](C(=O)N2CCOCC2)N(C)C(=O)[C@H](C2CCCC2)N(C)C(=O)C2(CCC2)NC(=O)[C@@H]2CCCN2C(=O)[C@H](CCc2ccc(C(F)(F)F)c(Cl)c2)NC(=O)CN(C)C(=O)[C@@H]1COC1CCC1 [PP1818] ([NMeL]I[NMeA][Aze][X2][Sar][hPhe(3-Cl-4-CF3)]P[Ac4c][NMeGly(cPent)][NMeD]-Morpholide; lactam N-11)	74.8 nM	0.9 nM	C (A compound having a KD ratio of 0.1 or more and less than 3 is denoted as C)	B (a compound having 3 or more and less than 10 is denoted as B)

The next lines start with results.

IC50 [1]	Kd [4]	Structure (SMILES)	NRAS/KRAS (KD ratio) [2]	HRAS/KRAS (KD ratio) [3]
8.7 nM	0.099 nM	CCCOC[C@H]1C(=O)N[C@@H]([C@@H](C)CC)C(=O)N(C)CC(=O)N(C)[C@H]2C/C=C\CCN(C2=O)[C@@H](Cc2ccc(C(F)(F)F)cc2)C(=O)N(C)CC(=O)N[C@@H](CCc2ccc(C(F)(F)F)c(OC)c2)C(=O)N2C[C@H](OCC)C[C@H]2C(=O)NC2(CC(C)(C)C2)C(=O)N(C)[C@@H](C2CCCC2)C(=O)N(C)[C@H](C(=O)N(C)CC)CC(=O)N1C [PP1973]	A (a compound having 10 or more and less than 20 is denoted as A)	B (a compound having 3 or more and less than 10 is denoted as B)
1.6 nM	0.055 nM	CCO[C@@H]1C[C@H]2C(=O)NC3(CC(C)(C)C3)C(=O)N(C)[C@@H](C3CCCC3)C(=O)N(C)[C@H](C(=O)N(C)CC)CC(=O)N(C)[C@@H](CC(F)F)C(=O)N[C@@H]([C@@H](C)CC)C(=O)N(C)CC(=O)N(C)[C@H]3C/C=C\CCN(C3=O)[C@@H](Cc3ccc(C(F)(F)F)cc3)C(=O)N(C)CC(=O)N[C@@H](CCc3cc(F)c(C(F)(F)F)c(F)c3)C(=O)N2C1 [PP1643]	A (a compound having 10 or more and less than 20 is denoted as A)	A (a compound having 10 or more and less than 20 is denoted as A)
5.3 nM	0.06 nM	CCC[C@H]1C(=O)N[C@@H]([C@@H](C)CC)C(=O)N(C)CC(=O)N(C)[C@H]2C/C=C\CCN(C2=O)[C@@H](Cc2ccc(C)cc2)C(=O)N(C)CC(=O)N[C@@H](CCc2ccc(C(F)(F)F)c(Cl)c2)C(=O)N2C[C@H](OCC)C[C@H]2C(=O)NC2(CC(C)(C)C2)C(=O)N(C)[C@@H](C2CCCC2)C(=O)N(C)[C@H](C(=O)N(C)C)CC(=O)N1C [PP1896]	A (a compound having 10 or more and less than 20 is denoted as A)	B (a compound having 3 or more and less than 10 is denoted as B)
6 nM	0.087 nM	CCCN(C)C(=O)[C@@H]1CC(=O)N(C)[C@@H](COC)C(=O)N[C@@H]([C@@H](C)CC)C(=O)N(C)CC(=O)N(C)[C@H]2C/C=C\CCN(C2=O)[C@@H](Cc2ccc(C(F)(F)F)cc2)C(=O)N(C)CC(=O)N[C@@H](CCc2cc(F)c(C(F)(F)F)c(F)c2)C(=O)N2C[C@H](OCC)C[C@H]2C(=O)NC2(CC(C)(C)C2)C(=O)N(C)[C@@H](C2CCCC2)C(=O)N1C [PP1672]	A (a compound having 10 or more and less than 20 is denoted as A)	A (a compound having 10 or more and less than 20 is denoted as A)
5.6 nM	0.17 nM	CCO[C@@H]1C[C@H]2C(=O)NC3(CC(C)(C)C3)C(=O)N(C)[C@@H](C3CCCC3)C(=O)N(C)[C@H](C(=O)N(C)CC)CC(=O)N(C)[C@@H](CC3CC3)C(=O)N[C@@H]([C@@H](C)CC)C(=O)N(C)CC(=O)N(C)[C@H]3C/C=C\CCN(C3=O)[C@@H](Cc3ccc(C(F)(F)F)cc3)C(=O)N(C)CC(=O)N[C@@H](CCc3ccc(C(F)(F)F)c(OC)c3)C(=O)N2C1 [PP1678]	A (a compound having 10 or more and less than 20 is denoted as A)	B (a compound having 3 or more and less than 10 is denoted as B)
5 nM	0.12 nM	CCC[C@H]1C(=O)N[C@@H]([C@@H](C)CC)C(=O)N(C)CC(=O)N(C)[C@H]2C/C=C\CCN(C2=O)[C@@H](Cc2ccc(C(F)(F)F)cc2)C(=O)N(C)CC(=O)N[C@@H](CCc2ccc(C(F)(F)F)c(OC)c2)C(=O)N2C[C@H](OCC)C[C@H]2C(=O)NC2(CC(C)(C)C2)C(=O)N(C)[C@@H](C2CCCC2)C(=O)N(C)[C@H](C(=O)N(C)CC)CC(=O)N1C [PP1676]	A (a compound having 10 or more and less than 20 is denoted as A)	A (a compound having 10 or more and less than 20 is denoted as A)
1.6 nM	0.083 nM	CCO[C@@H]1C[C@H]2C(=O)NC3(CC(C)(C)C3)C(=O)N(C)[C@@H](C3CCCC3)C(=O)N(C)[C@H](C(=O)N(C)CC)CC(=O)N(C)[C@@H](CC(F)F)C(=O)N[C@@H]([C@@H](C)CC)C(=O)N(C)CC(=O)N(C)[C@H]3C/C=C\CCN(C3=O)[C@@H](Cc3ccc(C(F)(F)F)cc3)C(=O)N(C)CC(=O)N[C@@H](CCc3ccc(C(F)(F)F)c(OC)c3)C(=O)N2C1 [PP1655]	A (a compound having 10 or more and less than 20 is denoted as A)	A (a compound having 10 or more and less than 20 is denoted as A)
